Like-named read-outs stand apart in the source and are kept apart here.
Tested on: bovine cartilage biopsies
Conditions: IL-1β and OSM 10 ng/mL, 21 days, FIG. 3
Procedure: For this purpose, cartilage biopsies were collected from the patello-femoral sulcus and femoral condyles from the femur of 1 adult bovine (15-18 months). […] The biopsies (Ø=3 mm) were taken with a steel punch.
Each biopsy was transferred to a well of a 48-well MW and washed twice with 500 μL PBS 1× (Euroclone, cat. no. ECB4004L, Italy). […] The biopsies were incubated for 24 h at 37° C. 5% CO2. After incubation, the biopsies were washed with 500 μL PBS 1×, and 500 μL DMEM/F-12+2% FBS containing the dilution of the compound to be tested were added to all the wells. Each statin was used at the concentrations of 10 μM and 2.5 μM. 4 biopsies were used for each condition. After 7, 14 and 21 days, the biopsy culture medium was aspirated and replaced with 500 μL of fresh culture medium containing the appropriate concentrations of pro-inflammatory cytokines (IL-1β and OSM, 10 ng/mL) and the active ingredients to be tested. The biopsy culture medium was harvested after 21 days and used to determine the soluble collagen content. The Sircol assay was conducted according to the manufacturer's instructions, and quantitation was effected by spectrophotometric reading at 555 nm.

## CC(C)c1c(C(=O)Nc2ccccc2)c(-c2ccccc2)c(-c2ccc(F)cc2)n1CC[C@@H](O)C[C@@H](O)CC(=O)O [atorvastatin]
Statin 2.5 μM
  collagen release induced by IL-1β and OSM: significant reduction in collagen release
Statin 10 μM
  collagen release induced by IL-1β and OSM: significant reduction in collagen release

## CC[C@H](C)C(=O)O[C@H]1C[C@@H](C)C=C2C=C[C@H](C)[C@H](CC[C@@H]3C[C@@H](O)CC(=O)O3)[C@H]21 [lovastatin]
Statin 2.5 μM
  collagen release induced by IL-1β and OSM: values comparable to those of the untreated control
Statin 10 μM
  collagen release induced by IL-1β and OSM: significant reduction in collagen release
